Data from PMC4647570, “Ketoreductase TpdE from Rhodococcus jostii TMP1: characterization and application in the synthesis of chiral alcohols” (PeerJ, 2015).

The molecules below were run on T1, TpdE (assay: NADPH oxidation at […] nm, Michaelis-Menten fit). Conditions: 0.2 mM NADPH, 50 mM phosphate pH 7.2, 30 °C; apparent.
T1 construct: C-terminal His6 tag, pET-tpdE in E. coli BL21 (DE3), Ni-chelating column, ~30 kDa on SDS-PAGE; residues T15, G16, G20, G22, N119, S148, Y161, K165
Type: biochemical, Rhodococcus jostii

Row | Km | SMILES
1 | 6.9 ± 0.9 mM | CCCCC(=O)C(C)=O [2,3-Heptanedione]
2 | 2.2 ± 0.4 mM | CCCC(=O)C(C)=O [2,3-Hexanedione]
3 | 0.98 ± 0.2 mM | CCC(=O)C(C)=O [2,3-Pentanedione]
4 | 3.3 ± 0.6 mM | CCC(=O)C(=O)CC [3,4-Hexanedione]
5 | 14.6 ± 4 mM | CC(=O)C(C)(C)O [3-Hydroxy-3-methyl-2-butanone]
6 | 14.4 ± 4.8 mM | CC(=O)C(C)S (stereo not drawn) [3-Mercapto-2-butanone]
7 | 5 ± 0.3 mM | CC(=O)C(C)O (stereo not drawn) [Acetoin]
8 | 0.76 ± 0.1 mM | CCCC(=O)OC(C)C(C)=O (stereo not drawn) [Butan-3-one-2-yl-butanoate]
9 | 1.9 ± 0.3 mM | CC(=O)C(C)=O [Diacetyl]
